Here are results for 1 molecule from publication PMC7962536, “Isolation, Characterization, and Medicinal Potential of Polysaccharides of Morchella esculenta” (Molecules, 2021).

This experiment concerns the target T1, tyrosinase enzyme from mushrooms.
T1 construct: gene PPO1; native mushroom tyrosinase preparation
In words: spectrophotometric L-DOPA oxidation, […] nm. The format is biochemical. The following applies: L-DOPA as substrate, sodium phosphate buffer pH 6.8, 37 °C, 10 min preincubation; unreliable: extrapolated below the lowest listed concentration 12.5 µg/mL.

Values after ≈ are worked out from the molar mass of the structure shown.

For the molecule `O=c1cc(CO)occ1O` [kojic acid], the IC50 was 8.25 ± 0.36 µg/mL (≈ 58.1 µM).

What is called IC50 is the concentration needed to halve the response being measured.
